Results as given in patent EP3269373A1, “LOW-DOSED ORAL DOSAGE FORM OF AN AKR1C3 INHIBITOR FOR TREATMENT OF DISEASES” (Bayer Pharma Aktiengesellschaft, priority 2016, dated 2018).

Legend:
[1] = cited from earlier work
AKR1C3 = molecular target: T1, AKR1C3 (Homo sapiens, UniProt P42330); details: as disclosed in WO 2013045407; cited from earlier work
T1 sequence (P42330 1-323): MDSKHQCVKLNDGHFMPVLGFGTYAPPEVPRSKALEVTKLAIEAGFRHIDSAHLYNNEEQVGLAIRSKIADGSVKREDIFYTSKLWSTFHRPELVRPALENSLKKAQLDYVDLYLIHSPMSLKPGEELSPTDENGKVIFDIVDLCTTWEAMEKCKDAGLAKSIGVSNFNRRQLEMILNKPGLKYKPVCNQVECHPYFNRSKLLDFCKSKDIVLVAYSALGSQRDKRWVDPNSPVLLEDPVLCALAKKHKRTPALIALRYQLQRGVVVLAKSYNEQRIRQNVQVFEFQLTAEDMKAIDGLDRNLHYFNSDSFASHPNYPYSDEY

[2] = Embryonic (embryo-fetal) development study in rats; format: in vivo; details: for NOAEL: female, rat, in vivo, po, pregnant rats, oral gavage once daily, Day 6 to Day 17 of gestation
Protocol: The NOAEL for developmental toxicity in rats is consequently the mid dose of 17 mg/kg.
The control received the vehicle in the same manner. All F0-females were sacrificed on Day 21 of gestation and the following parameters were recorded after removal and examination of the ovaries and the uteri: Number of corpora lutea, number and state of implantation sites (i.e, live foetus, early and late interauterine deaths, dead fetuses). […] Dead fetuses were classified as those which appeared to have died shortly before necropsy. Live foetuses were euthanised by a subcutaneous injection of sodium pentobarbitone. Individual foetal and placental weights were recorded and foetuses were examined for external abnormalities and sexed by external observation. Afterwards, approximately one half of the foetuses in each litter were examined for visceral abnormalities by microdissection. They were then eviscerated and the carcasses processed and Alizarin Red S stained for skeletal examination. The remaining foetuses were fixed in Bouin's fluid and examined for visceral abnormalities by the Wilson sectioning method. Foetal abnormalities were classified as malformations (rare and/or potentially lethal defects) and variations (commonly occurring non-lethal abnormalities).

[3] = Single dose study in healthy postmenopausal women (safety, plasma bilirubin); format: in vivo
Protocol: Single center, randomized, placebo-controlled, double-blind and parallel group study. For the 30 mg group only, a one sequence cross-over design was applied to estimate the relative bioavailability of a liquid versus a solid formulation.
In this study the AKR1C3 inhibitor was administered as a single oral dose. Eight volunteers per treatment group were included. Two volunteers per treatment group were allocated to placebo in a randomized, double-blind fashion in order to assess non-drug related factors in the safety evaluation. To ensure that 8 subjects were treated, during the pre-dose phase at least 1 backup subject had to undergo all necessary measurements to compensate for the risk that a person had to be excluded immediately before dosing due to safety concerns.
Forty-six (46, 76.7%) out of 60 treated subjects were treated with the AKR1C3 inhibitor (6 subjects per group at dose levels 1 mg, 3 mg, 10 mg, 30 mg, 120 mg, 240 mg; 5 subjects per group at 60 mg and 90 mg) and 14 subjects (23.3%) received placebo (2 subjects each in the 1 mg, 3 mg, 30 mg, 60 mg, 120 mg and 240 mg groups, and 1 subject each in the 10 mg and 90 mg groups). All 60 treated subjects (100%) completed the study and were included in the statistical analyses of safety (SAF: N=60). One out of 60 treated subjects was not valid for the analysis of pharmacodynamics due to vomiting before two times tmax (PDS: N=59). This same subject was also excluded from the PK analysis of the 46 verum-treated subjects, and all 14 placebo-treated subjects were not valid for the analysis of PK (PKS: N=45).
Bilirubin was measured employing a standard laboratory kit.

[4] = Embryonic (embryo-fetal) development study in rabbits; format: in vivo; details: for NOAEL: female, po, pregnant rabbits, oral gavage once daily, Day 6 to Day 19 of gestation
Protocol: However, the incidence of some foetal structural variations (= mild foetal structural abnormalities) was increased at the mid dose of 20 mg/kg and higher. […] Table 2: Preclinical safety margins
The control received the vehicle in the same manner. All F0-females were sacrificed on Day 29 of gestation and the following parameters were recorded after removal and examination of the ovaries and the uteri: Number of corpora lutea, number and state of implantation sites (i.e, live foetus, early and late interauterine deaths, dead fetuses). […] Dead fetuses were classified as those which appeared to have died shortly before necropsy. Live foetuses were euthanised by an intraperitoneal injection of sodium pentobarbitone. Individual foetal and placental weights were recorded and foetuses were examined for external abnormalities and sexed by external observation. All fetuses in each litter were examined for visceral abnormalities by microdissection, eviscerated and the carcasses processed and Alizarin Red S stained for skeletal examination. The intact heads of approximately one half of the fetuses in each litter were removed after the fetuses were killed and were processed in Bouin's fluid. The heads were then examined by the Wilson sectioning method. Foetal abnormalities were classified as malformations (rare and/or potentially lethal defects) and variations (commonly occurring non-lethal abnormalities). […] These variations were related to sternebra. […] This finding was not present in the background data. […] Thus, in summary, the NOAEL for maternal toxicity is considered to be 70 mg/kg. The NOAEL for developmental toxicity is regarded as 5 mg/kg due to the occurrence of foetal findings classified as variations at the dose of 20 mg/kg and higher.

[5] = Risk assessment on reproductive and developmental toxicities (exposure ratios animal:human) combined with clinical studies
Source text: According to that regulatory guidance, there is increased concern for reproductive or developmental toxicity in humans for relative exposure ratios (animal: human) that are <10 and decreased concern for exposure ratios >25.

[6] = Multiple dose study Part A in healthy postmenopausal women, 14 days (safety, plasma bilirubin); details: for Plasma bilirubin concentrations above the upper limit of normal (subjects): tablets
Protocol: (§1) Plasma bilirubin levels were assessed prior to dosing and 1, 2, 6 and 14 days after drug administration. […] 30 mg (once daily), 90 mg (once daily) or 60 mg (twice daily) per 70 kg body weight for women of the AKR1C3 inhibitor over 14 days. Plasma bilirubin levels were assessed prior to dosing and 1, 2, 6, 10, 13, 15, 19 days after drug administration and at final examination. […] Plasma bilirubin levels were assessed prior to dosing and on cycle days 8, 12, 15, 22, 29, 33 after start of drug administration and at the follow up examinations.
(§2) The study was performed as an ascending dose study after multiple oral doses of the AKR1C3 inhibitor or placebo in 27 healthy postmenopausal (PM) women, aged 45 to 68 years (Part A) and 18 healthy tubal-ligated (TL) women, aged 18 to 48 (Part B).
The study consists of two parts: Part A was performed in healthy postmenopausal women (randomized within each dose level and placebo-controlled), Part B in healthy premenopausal women with tubal-ligation (open label; intraindividual comparison to pre-treatment cycle) with 28 days treatment (i.e. approx. one menstrual cycle). The safety of 30 mg once daily, 90 mg once daily, 60 mg twice/day of the AKR1C3 inhibitor given over 14 days was assessed in postmenopausal women prior to exposing premenopausal women to the corresponding doses of 60 mg once daily, 60 mg twice/day over 28 days. • Part A and Part B were further divided into different periods: • Part A: screening, pre-dose, treatment period 1 with single dose administration, treatment period 2 with multiple dose administration on 14 consecutive days and follow-up. A wash-out period between treatment period 1 (administration day) and treatment period 2 (first administration) of at least 14 days and not more than 28 days was necessary. Women received the study medication in a fasted state in period 1 (single dose) as well as on day 14 of period 2 (multiple dose). On day 1 of period 2 the study medication was given after breakfast to evaluate the food effect. Three increasing dosages of the AKR1C3 inhibitor were tested: 30 mg once daily, 90 mg once daily and 60 mg twice daily. In addition, a lower dose 3 mg once daily was evaluated. Nine volunteers per dose level were included into the study; thereof, n = 7 women were randomly assigned to treatment with the respective dose and n = 2 to placebo treatment. The study drug was administered in a double-blind manner within one dose level, i.e. all volunteers of that dose level received the same number of tablets identical in appearance. • Part B: screening, pre-dose (pre-treatment cycle), treatment period with multiple dose administration on 28 consecutive days and follow-up. In the pre-dose period, hormonal changes during a menstrual cycle including evidence of ovulation were evaluated. Study drug administration started on day 4 of the menstrual bleeding after end of the pre-treatment cycle, the study drug was then be taken on 28 consecutive days, independent of further menstrual bleedings. The pre-treatment cycle can be separated by up to 2 menstrual cycles from the treatment period.
Total bilirubin concentrations were monitored throughout this study.Bilirubin was measured employing a standard laboratory kit. The tests were performed according to the instructions as provided by the manufacturer (Beckman coulter kit AU680).

[7] = Multiple dose study Part B in healthy premenopausal tubal-ligated women, 28 days (safety, plasma bilirubin); format: in vivo; details: for Plasma bilirubin concentrations above the upper limit of normal (subjects): tablets
Protocol: as §1, §2
The study consists of two parts: Part A was performed in healthy postmenopausal women (randomized within each dose level and placebo-controlled), Part B in healthy premenopausal women with tubal-ligation (open label; intraindividual comparison to pre-treatment cycle) with 28 days treatment (i.e. approx. one menstrual cycle). The safety of 30 mg once daily, 90 mg once daily, 60 mg twice/day of the AKR1C3 inhibitor given over 14 days was assessed in postmenopausal women prior to exposing premenopausal women to the corresponding doses of 60 mg once daily, 60 mg twice/day over 28 days. • Part A and Part B were further divided into different periods: • Part A: screening, pre-dose, treatment period 1 with single dose administration, treatment period 2 with multiple dose administration on 14 consecutive days and follow-up. […] Three increasing dosages of the AKR1C3 inhibitor were tested: 30 mg once daily, 90 mg once daily and 60 mg twice daily. In addition, a lower dose 3 mg once daily was evaluated. Nine volunteers per dose level were included into the study; thereof, n = 7 women were randomly assigned to treatment with the respective dose and n = 2 to placebo treatment. The study drug was administered in a double-blind manner within one dose level, i.e. all volunteers of that dose level received the same number of tablets identical in appearance. • Part B: screening, pre-dose (pre-treatment cycle), treatment period with multiple dose administration on 28 consecutive days and follow-up.

Compound: CN(CCC(=O)O)C(=O)c1ccc2c(c1)CC[C@@H]1[C@@H]2CC[C@]2(C)C(c3cncc(F)c3)=CC[C@@H]12 [AKR1C3 inhibitor, N-{[17-(5-Fluoropyridin-3-yl)estra-1,3,5(10),16-tetraen-3-yl]carbonyl}-N-methyl-β-alanine]
- lesion load ([1]; 0.2 mg/kg and 0.8 mg/kg, given daily, compared to the vehicle group): reduction in lesion load
- lesions on the bladder and on/in the uterus ([1]; 30 mg/kg daily, compared with the vehicle group (WO 2013045407)): hardly any lesions could be found
- AKR1C3 inhibition (AKR1C3): potent
- incidence of fetal visceral and skeletal variations ([2]; 60 mg/kg, compared to the concurrent or historical control): higher incidence
- NOAEL ([2]; doses 0, 5, 17, 60 mg/kg, read-out: NOAEL for dev. toxicity): 17 mg/kg
- NOAEL ([2]; read-out: NOAEL for maternal toxicity): 60 mg/kg
- incidence of malformations ([2]; high dose 60 mg/kg, from eight dams, out of a total of 198 foetuses (control 1 foetus out of 211)): 12 foetuses
- higher systemic exposure (AUCunbound) at NOAEL than expected clinical exposure ([2]; rats at 17 mg/kg vs once daily 3 mg/day in humans): ~122 fold
- higher systemic exposure (AUCunbound) at NOAEL than expected clinical exposure ([2]; rats at 17 mg/kg vs once daily 30 mg/day in humans): ~15 fold
- higher systemic exposure (AUCunbound) at NOAEL than expected clinical exposure ([2]; rats at 17 mg/kg vs twice daily 60 mg/day in humans): approximately 2 fold
- drug-related TEAE headache ([3]; female, human, in vivo): 21.7%
- drug-related TEAE nausea ([3]; female, human, in vivo): 15.2%
- drug-related TEAE vomiting ([3]; female, human, in vivo): 13.0%
- Serious treatment-emergent adverse events (TEAEs) ([3]; in vivo): not reported
- indication for hemolysis ([3]; in vivo): no indication for hemolysis
- signs of drug-induced liver injury (DILI) ([3]; in vivo): no signs of drug-induced liver injury (DILI) have been detected
- maximum tolerated dose ([3]; single dose): 120 mg
- well tolerated up to a single dose ([3]; single oral dose): ≤ 120 mg
- NOAEL ([4]; rabbit, in vivo, doses 0, 5, 20, 70 mg/kg, read-out: NOAEL for dev. toxicity): 5 mg/kg
- NOAEL ([4]; rabbit, in vivo, read-out: NOAEL for maternal toxicity): 70 mg/kg
- occurrence of sternebra with increased ossification ([4]; rabbit, in vivo, 5 mg/kg): very low incidence
- incidence of some foetal structural variations ([4]; rabbit, in vivo, 20 mg/kg): increased
- incidence of a discoloured thymus in fetuses ([4]; rabbit, in vivo, 70 mg/kg): slightly higher incidence
- higher systemic exposure (AUCunbound) at NOAEL than expected clinical exposure ([4]; rabbits at 5 mg/kg vs once daily 3 mg/day in humans): ~17 fold
- higher systemic exposure (AUCunbound) at NOAEL than expected clinical exposure ([4]; rabbits at 5 mg/kg vs twice daily 60 mg/day in humans): approximately 0.3 fold
- dose of decreased concern for reproductive or developmental toxicity in humans [5]: ≤ 3 mg daily dose
- dose of increased concern for reproductive or developmental toxicity in humans [5]: > 15 mg daily dose
- Plasma bilirubin concentrations above the upper limit of normal (subjects) ([6]; 60 mg twice daily over 14 days): 5 of 7
- changes in plasma bilirubin ([6]; 60 mg twice daily, 14 days): increase in plasma bilirubin was observed in a significant fraction of subjects
- Plasma bilirubin concentrations above the upper limit of normal (subjects) ([6]; 90 mg once daily over 14 days): 1 of 7
- changes in plasma bilirubin ([6]; 90 mg once daily, postmenopausal women, 2 weeks of treatment): increases in plasma bilirubin were observed in a small fraction of subjects
- well tolerated up to a dose ([6]; multiple dosing, women): ≤ 60 mg twice daily
- changes in plasma bilirubin ([6]; up to 30 mg once daily / 70 kg body weight, single and repeat dosing up to 14 days): no changes in plasma bilirubin were observed
- Plasma bilirubin concentrations above the upper limit of normal (subjects) ([7]; 60 mg once daily over 28 days): 1 of 9
- changes in plasma bilirubin ([7]; 60 mg once daily, premenopausal women, 4 weeks of treatment): increases in plasma bilirubin were observed in a small fraction of subjects
- Plasma bilirubin concentrations above the upper limit of normal (subjects) ([7]; 60 mg twice daily over 28 days): 2 of 9
- changes in plasma bilirubin ([7]; 60 mg twice daily, 28 days): increase in plasma bilirubin was observed in a significant fraction of subjects
